pKi: −log10 of the molar value.
These compounds were tested on T-Rex 293 cell line SC cells lacking increased expression of progesterone receptor isoform B protein (assay: Cellular growth inhibition assay, T-Rex 293 SC cells not exposed to doxycycline (no increased progesterone receptor isoform B expression), CellTiter-Glo). Details: T-Rex 293 SC cells without doxycycline (no increased PR isoform B), 72 hours.
Format: cell-based

Row | Compound | GI50 [nM]
1 | CCS(=O)(=O)Nc1ccc(Oc2cccc(OCCN(C)c3ncc(C(=O)N[C@H]4C(C)(C)[C@H](Oc5ccc(C#N)c(Cl)c5)C4(C)C)cn3)c2)c(-c2cn(C)c(=O)c3[nH]ccc23)c1 [Compound I-1, N-((1r, 3r)-3-(3-chloro-4-cyanophenoxy)-2,2,4,4-tetramethylcyclobutyl)-2-((2-(3-(4-(ethylsulfonamido)-2-(6-methyl-7-oxo-6,7-dihydro-1H-pyrrolo[2,3-c]pyridin-4-yl)phenoxy)phenoxy)ethyl)(methyl)amino)pyrimidine-5-carboxamide] | < 500
2 | CCS(=O)(=O)Nc1ccc(Oc2cccc(OCCOCCOCCOCCOCCN(C)c3ncc(C(=O)N[C@H]4C(C)(C)[C@H](Oc5ccc(C#N)c(Cl)c5)C4(C)C)cn3)c2)c(-c2cn(C)c(=O)c3[nH]ccc23)c1 [Compound I-3] | 500 to 1500

What follows are compounds tested on T-Rex 293 cell line SC cells having increased expression of progesterone receptor isoform B protein (assay: Cellular growth inhibition assay, T-Rex 293 SC cells exposed to doxycycline (increased progesterone receptor isoform B expression), CellTiter-Glo). Details: T-Rex 293 SC cells with 10 ng/mL doxycycline (increased PR isoform B), 72 hours.
Format: cell-based

Row | Compound | GI50 [nM]
3 | CCS(=O)(=O)Nc1ccc(Oc2cccc(OCCN(C)c3ncc(C(=O)N[C@H]4C(C)(C)[C@H](Oc5ccc(C#N)c(Cl)c5)C4(C)C)cn3)c2)c(-c2cn(C)c(=O)c3[nH]ccc23)c1 [Compound I-1, N-((1r, 3r)-3-(3-chloro-4-cyanophenoxy)-2,2,4,4-tetramethylcyclobutyl)-2-((2-(3-(4-(ethylsulfonamido)-2-(6-methyl-7-oxo-6,7-dihydro-1H-pyrrolo[2,3-c]pyridin-4-yl)phenoxy)phenoxy)ethyl)(methyl)amino)pyrimidine-5-carboxamide] | < 500
4 | CCS(=O)(=O)Nc1ccc(Oc2cccc(OCCOCCOCCOCCOCCN(C)c3ncc(C(=O)N[C@H]4C(C)(C)[C@H](Oc5ccc(C#N)c(Cl)c5)C4(C)C)cn3)c2)c(-c2cn(C)c(=O)c3[nH]ccc23)c1 [Compound I-3] | < 500

What follows are compounds tested against T1, androgen receptor (Homo sapiens, UniProt P10275) (assay: Assay for binding affinity to androgen receptor ([3H]methyltrienolone radioligand competition, cell cytosol)). Details: binding to the androgen receptor, 1 nM [3H]methyltrienolone, 24 hr at 4° C.
T1 construct: host or cells: unnamed cells, cytosolic fraction
T1 sequence (P10275 1-920): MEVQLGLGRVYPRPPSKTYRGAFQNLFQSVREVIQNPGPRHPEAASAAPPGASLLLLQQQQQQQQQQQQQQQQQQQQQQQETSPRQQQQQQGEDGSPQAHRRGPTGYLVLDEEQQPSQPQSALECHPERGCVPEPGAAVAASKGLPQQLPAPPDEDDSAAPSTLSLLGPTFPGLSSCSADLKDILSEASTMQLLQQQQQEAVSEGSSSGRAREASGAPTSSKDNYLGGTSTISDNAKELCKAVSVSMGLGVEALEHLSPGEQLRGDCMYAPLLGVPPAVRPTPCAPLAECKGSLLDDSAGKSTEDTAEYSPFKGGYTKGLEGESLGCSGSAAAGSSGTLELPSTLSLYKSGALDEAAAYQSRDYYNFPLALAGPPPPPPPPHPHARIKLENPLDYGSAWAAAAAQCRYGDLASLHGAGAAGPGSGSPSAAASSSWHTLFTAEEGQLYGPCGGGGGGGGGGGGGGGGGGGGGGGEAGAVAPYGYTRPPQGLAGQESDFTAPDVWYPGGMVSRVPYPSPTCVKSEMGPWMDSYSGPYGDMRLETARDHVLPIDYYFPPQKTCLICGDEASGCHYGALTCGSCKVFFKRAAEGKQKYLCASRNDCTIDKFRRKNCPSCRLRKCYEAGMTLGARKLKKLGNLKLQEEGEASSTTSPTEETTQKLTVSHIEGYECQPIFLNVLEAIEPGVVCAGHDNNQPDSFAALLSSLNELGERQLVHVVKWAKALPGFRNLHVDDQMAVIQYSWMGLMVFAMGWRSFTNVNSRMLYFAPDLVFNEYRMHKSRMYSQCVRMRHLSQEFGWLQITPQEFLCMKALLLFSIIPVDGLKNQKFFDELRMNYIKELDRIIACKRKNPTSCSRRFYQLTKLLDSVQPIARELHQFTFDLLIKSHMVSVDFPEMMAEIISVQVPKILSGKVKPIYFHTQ
Method: Fractions of cell cytosol ([…]) were incubated for 24 hr at 4° C. with 1 nM [^3H]methyltrienolone in the absence or presence of the test compound in a buffer containing 25 mM Hepes-Tris (pH 7.4), 1 mM EDTA, 10 mM Na2MoO4, 2 mM DTT, 5 μM triamcinolone acetonide, and 10% glycerol. Nonspecific binding was determined in the presence of […] testosterone. Following incubation, the samples were filtered rapidly under vacuum through glass fiber filters (GF/B, Packard) presoaked with 0.3% PEI and rinsed several times with ice-cold 50 mM Tris-HCl using a 96-sample cell harvester (Unifilter, Packard). The filters were dried then counted for radioactivity in a scintillation counter (Topcount, Packard) using a scintillation cocktail (Microscint 0, Packard). The results are expressed as a percent inhibition of the control radioligand specific binding. The standard reference compound is testosterone, which is tested in each experiment at several concentrations to obtain a competition curve from which its IC50 is calculated.

Row | Compound | pKi
5 | CCS(=O)(=O)Nc1ccc(Oc2cccc(OCCN(C)c3ncc(C(=O)N[C@H]4C(C)(C)[C@H](Oc5ccc(C#N)c(Cl)c5)C4(C)C)cn3)c2)c(-c2cn(C)c(=O)c3[nH]ccc23)c1 [Compound I-1, N-((1r, 3r)-3-(3-chloro-4-cyanophenoxy)-2,2,4,4-tetramethylcyclobutyl)-2-((2-(3-(4-(ethylsulfonamido)-2-(6-methyl-7-oxo-6,7-dihydro-1H-pyrrolo[2,3-c]pyridin-4-yl)phenoxy)phenoxy)ethyl)(methyl)amino)pyrimidine-5-carboxamide] | > 7.30
6 | CCS(=O)(=O)Nc1ccc(Oc2cccc(OCCOCCOCCOCCOCCN(C)c3ncc(C(=O)N[C@H]4C(C)(C)[C@H](Oc5ccc(C#N)c(Cl)c5)C4(C)C)cn3)c2)c(-c2cn(C)c(=O)c3[nH]ccc23)c1 [Compound I-3] | > 7.30
7 | CCS(=O)(=O)Nc1ccc(Oc2cccc(OCCOCCOCCOCCOCCOC3CCN(c4ncc(C(=O)N[C@H]5C(C)(C)[C@H](Oc6ccc(C#N)c(Cl)c6)C5(C)C)cn4)CC3)c2)c(-c2cn(C)c(=O)c3[nH]ccc23)c1 [Compound I-8] | > 7.30
8 | CCS(=O)(=O)Nc1ccc(Oc2cccc(OCCOC3CCN(c4ccc(C(=O)N[C@H]5C(C)(C)[C@H](Oc6ccc(C#N)c(Cl)c6)C5(C)C)nn4)CC3)c2)c(-c2cn(C)c(=O)c3[nH]ccc23)c1 [Compound I-11] | > 7.30
9 | CCS(=O)(=O)Nc1ccc(Oc2cccc(OCCOCCOC3CCN(c4ncc(C(=O)N[C@H]5C(C)(C)[C@H](Oc6ccc(C#N)c(Cl)c6)C5(C)C)cn4)CC3)c2)c(-c2cn(C)c(=O)c3[nH]ccc23)c1 [Compound I-13] | > 7.30
10 | CCS(=O)(=O)Nc1ccc(Oc2cccc(CCOC3CCN(c4ncc(C(=O)N[C@H]5C(C)(C)[C@H](Oc6ccc(C#N)c(Cl)c6)C5(C)C)cn4)CC3)c2)c(-c2cn(C)c(=O)c3[nH]ccc23)c1 [Compound I-19] | > 7.30
11 | CCS(=O)(=O)Nc1ccc(Oc2cccc(N(C)C3CN(CC4CCN(c5ncc(C(=O)NC6C(C)(C)C(Oc7ccc(C#N)c(Cl)c7)C6(C)C)cn5)CC4)C3)c2)c(-c2cn(C)c(=O)c3[nH]ccc23)c1 (centres unmarked) [Compound I-39] | > 7.30
12 | CCS(=O)(=O)Nc1ccc(Oc2cccc(OCCOC3CCN(c4ncc(C(=O)N[C@H]5C(C)(C)[C@H](Oc6ccc(C#N)c(Cl)c6)C5(C)C)cn4)CC3)n2)c(-c2cn(C)c(=O)c3[nH]ccc23)c1 [Compound I-47, N-((1r, 3r)-3-(3-chloro-4-cyanophenoxy)-2,2,4,4-tetra-methylcyclobutyl)-2-(4-(2-((6-(4-(ethylsulfonamido)-2-(6-methyl-7-oxo-6,7-dihydro-1H-pyrrolo[2,3-c]pyridin-4-yl)phenoxy)pyridin-2-yl)oxy)ethoxy)piperidin-1-yl)pyrimidine-5-carboxamide] | > 7.30
13 | Cn1cc(-c2ccccc2Oc2cccc(OCCOC3CCN(c4ncc(C(=O)N[C@H]5C(C)(C)[C@H](Oc6ccc(C#N)c(Cl)c6)C5(C)C)cn4)CC3)c2)c2cc[nH]c2c1=O [Compound I-61, N-((1r, 3r)-3-(3-chloro-4-cyanophenoxy)-2,2,4,4-tetramethylcyclobutyl)-2-(4-(2-(3-(2-(6-methyl-7-oxo-6,7-dihydro-1H-pyrrolo[2,3-c]pyridin-4-yl)phenoxy)phenoxy)ethoxy)piperidin-1-yl)pyrimidine-5-carboxamide] | > 7.30
14 | CCS(=O)(=O)Nc1ccc(Oc2cccc(NCCOC3CCN(c4ncc(C(=O)N[C@H]5C(C)(C)[C@H](Oc6ccc(C#N)c(Cl)c6)C5(C)C)cn4)CC3)c2)c(-c2cn(C)c(=O)c3[nH]ccc23)c1 [Compound I-84] | > 7.30
15 | Cn1cc(-c2cc(N)ccc2Oc2cccc(N3CC(N4CCN(c5ncc(C(=O)N[C@H]6C(C)(C)[C@H](Oc7ccc(C#N)c(Cl)c7)C6(C)C)cn5)CC4)C3)c2F)c2cc[nH]c2c1=O [Compound I-93] | > 7.30
16 | Cn1cc(-c2ccccc2Oc2cccc(OCCN3CCN(c4ncc(C(=O)N[C@H]5C(C)(C)[C@H](Oc6ccc(C#N)c(Cl)c6)C5(C)C)cn4)CC3)c2)c2cc[nH]c2c1=O [Compound I-98] | > 7.30
17 | Cn1cc(-c2cc(C(C)(C)O)ccc2Oc2cccc(OCCN3CCN(c4ncc(C(=O)N[C@H]5C(C)(C)[C@H](Oc6ccc(C#N)c(Cl)c6)C5(C)C)cn4)CC3)c2F)c2cc[nH]c2c1=O [Compound I-99] | > 7.30
18 | Cn1cc(-c2cc(N)ccc2Oc2cccc(OCCN3CCN(c4ncc(C(=O)N[C@H]5C(C)(C)[C@H](Oc6ccc(C#N)c(Cl)c6)C5(C)C)cn4)CC3)c2F)c2cc[nH]c2c1=O [Compound I-100] | > 7.30

Next, values leading:

Row | pKi | Compound
19 | > 7.30 | Cn1cc(-c2cc(N)ccc2Oc2cccc(OCCC3CCN(c4ncc(C(=O)N[C@H]5C(C)(C)[C@H](Oc6ccc(C#N)c(Cl)c6)C5(C)C)cn4)CC3)c2)c2cc[nH]c2c1=O [Compound I-101]
20 | > 7.30 | CCS(=O)(=O)N(C)c1ccc(Oc2cccc(N3CCN(C4CN(c5ncc(C(=O)N[C@H]6C(C)(C)[C@H](Oc7ccc(C#N)c(Cl)c7)C6(C)C)cn5)C4)CC3)c2)c(-c2cn(C)c(=O)c3[nH]ccc23)c1 [Compound I-118]
21 | > 7.30 | CCS(=O)(=O)Nc1ccc(Oc2cccc(CCN3CC4CN(c5ncc(C(=O)N[C@H]6C(C)(C)[C@H](Oc7ccc(C#N)c(Cl)c7)C6(C)C)cn5)CC4C3)c2)c(-c2cn(C)c(=O)c3[nH]ccc23)c1 (some centres unmarked) [Compound I-119]
22 | > 7.30 | CCS(=O)(=O)Nc1ccc(Oc2cccc(N3CC(N(C)C4CN(c5ncc(C(=O)N[C@H]6C(C)(C)[C@H](Oc7ccc(C#N)c(Cl)c7)C6(C)C)cn5)C4)C3)c2)c(-c2cn(C)c(=O)c3[nH]ccc23)c1 [Compound I-120]
23 | > 7.30 | CCS(=O)(=O)Nc1ccc(Oc2cccc(N3CCN(C4CN(c5ncc(C(=O)N[C@H]6C(C)(C)[C@H](Oc7ccc(C#N)c(Cl)c7)C6(C)C)cn5)C4)CC3)c2)c(-c2cn(C)c(=O)c3[nH]ccc23)c1 [Compound I-126]
24 | > 7.30 | CCS(=O)(=O)Nc1ccc(Oc2cccc(N3CC(CC4CN(c5ncc(C(=O)N[C@H]6C(C)(C)[C@H](Oc7ccc(C#N)c(Cl)c7)C6(C)C)cn5)C4)C3)c2)c(-c2cn(C)c(=O)c3[nH]ccc23)c1 [Compound I-158]
25 | > 7.30 | CCS(=O)(=O)c1ccc(Oc2cccc(OCCOC3CCN(c4ccc(C(=O)N[C@H]5C(C)(C)[C@H](Oc6ccc(C#N)c(Cl)c6)C5(C)C)cn4)CC3)c2F)c(-c2cn(C)c(=O)c3[nH]ccc23)c1 [Compound I-185]
26 | > 7.30 | Cn1cc(-c2cc(C(C)(C)O)ccc2Oc2ccc(N3CC4(C3)CN(c3ncc(C(=O)N[C@H]5C(C)(C)[C@H](Oc6ccc(C#N)c(Cl)c6)C5(C)C)cn3)CCO4)cc2)c2cc[nH]c2c1=O [Compound I-212]
27 | > 7.30 | Cn1cc(-c2cc(C(C)(C)O)ccc2Oc2cccc(N3CC4(CN(c5ncc(C(=O)N[C@H]6C(C)(C)[C@H](Oc7ccc(C#N)c(Cl)c7)C6(C)C)cn5)CCO4)C3)c2F)c2cc[nH]c2c1=O [Compound I-216]
28 | > 7.30 | CCS(=O)(=O)c1ccc(Oc2cccc(OCCN3CCN(c4ncc5c(n4)CN([C@H]4C(C)(C)[C@H](Oc6ccc(C#N)c(Cl)c6)C4(C)C)C5=O)CC3)c2F)c(-c2cn(C)c(=O)c3[nH]ccc23)c1 [Compound I-217]
29 | > 7.30 | CCS(=O)(=O)c1ccc(OC(CCCCN2CCN(c3ncc(C(=O)NC4C(C)(C)C(Oc5ccc(C#N)c(Cl)c5)C4(C)C)cn3)CC2)C2CC2)c(-c2cn(C)c(=O)c3[nH]ccc23)c1 (centres unmarked) [Compound I-223, N-[3-(3-chloro-4-cyano-phenoxy)-2,2,4,4-tetramethyl-cyclobutyl]-2-[4-[5-cyclopropyl-5-[4-ethylsulfonyl-2-(6-methyl-7-oxo-1H-pyrrolo[2,3-c]pyridin-4-yl)phenoxy]pentyl]piperazin-1-yl]pyrimidine-5-carboxamide]

Source: patent publication US20250388605A1, “HETEROBIFUNCTIONAL COMPOUNDS AND METHODS OF TREATING DISEASE” (Halda Therapeutics OpCo, Inc., priority 2022, published 2025)
